This is an account of results in US20240189276A1, “COMPOSITIONS COMPRISING LACTATE DEHYDROGENASE-A INHIBITORS AND METHODS OF PRODUCTION AND USE THEREOF” (Southwestern Oklahoma State University, priority 2022, published 2024).

A value given as a limit tells only on which side of the number the result lay.

In data set [1] the test system is HeLa human cervical carcinoma cells. To be noted: literature; normoxic conditions stated for NHI-2; cited from earlier work.
Data set [2] concerns PANC-1. To be noted: literature, normoxic conditions; read-out: viability IC50 in PANC-1; cited from earlier work.
Data set [3] deals with PDAC cells. To be noted: literature; cited from earlier work.
Data set [4] has as its system PANC-1 cells. The data set is described as follows: Cytotoxicity (viability/proliferation/necrosis) assay, PANC-1. Format: cell-based. To be noted: Homo sapiens; PANC-1, 48 hr, normoxic; read-out: Cytotoxicity IC50 ± SD, PANC-1.
Description: (§1) Cytotoxicity study: Anticancer potency was investigated using a fluorescence-based high throughput confocal microscopy cell viability/proliferation/cell death assay. […] Selected compounds were also tested in the FC1199 pancreatic cancer line from the KPC-1 genetically engineered mouse model. Compounds were also tested in hTERT immortalized normal pancreatic (HPNE) cell lines to rule out nonspecific cytotoxicity of compounds.
(§2) Cell lines. The human PANC-1, MiaPaCa-2, and HPNE cell lines were obtained from American Type Culture Collection (ATCC, Manassas, VA, USA). Mouse pancreatic cancer FC1199 cells were obtained from the KPC-1 genetically engineered mouse model that has mutated K-Ras, metastasizes to the liver, and forms desmoplasia.
(§3) Cytotoxicity assay. Cytotoxicity was assessed using the viability/proliferation/necrosis assay. […] Confocal images were acquired using the Operetta High Content Imaging System (PerkinElmer). […] SYTOX Green will be detected using an excitation wavelength of 500-520 nm and an emission wavelength of 520-530 nm. Brightfield images will also be acquired for each field. […] Cell counts were summed over the five fields for each well, and the percentage of viable cells was calculated relative to the untreated control.
The test system of data set [5] is FC1199 pancreatic cancer cells. The experiment in a line: Cytotoxicity (viability/proliferation/necrosis) assay, FC1199. Format: cell-based. To be noted: Mus musculus, Pancreatic cancer cell; FC-1199, 48 hr; read-out: Cytotoxicity IC50 ± SD, FC-1199.
Description: as §1, §2, §3
Data set [6] can be described thus: Cytotoxicity assay in hTERT immortalized normal pancreatic cells. In kind it is cell-based. To be noted: human, HPNE cells (hTERT immortalized normal pancreatic cells), read-out: Cytotoxicity IC50 ± SD, HPNE Normal.
Description: as §1, §2, §3
Data set [7] deals with hLDH5 (LDHA) (Homo sapiens, UniProt P00338). The experiment in a line: Biochemical LDHA (hLDH5) inhibition assay, NADH fluorescence. To be noted: read-out: LDHA inhibition IC50 ± SD.
Description: Biochemical LDHA inhibition assay: The hLDH5 (LDHA) enzymatic activity was measured by fluorescence (excitation@ 340 nm, emission@ 460 nm) to monitor the rate of conversion of NADH to NAD+at 37° C.
The hLDH5 (LDHA) inhibition assay was performed by measuring the fluorescence (excitation@ 340 nm, emission@ 460 nm) and monitoring the rate of conversion of NADH to NAD+at 37° C. as reported. […] The stock solution of compounds was prepared in DMSO. […] The experiment involved adding a solution of compounds in DMSO to the enzyme and NADH in a phosphate buffer. The assay plate was incubated at 25° C. for 10 minutes, and a baseline read was taken, after which pyruvate was added. The fluorescence was read for 5 minutes every 30 seconds in a microplate reader. The slope of a suitable linear timeframe was calculated with the curve bottom assigned to the initial 5-second recording before adding pyruvate (background rate) and the curve top to the negative (DMSO only) control wells rate. IC50 values were determined from dose-response curves using four-parameter logistic non-linear regression analysis in Prism Software v9.0. The assays were performed in triplicates and the data is presented as mean±SD (n=3).
Data set [8] concerns human pancreatic and lymphoma cancer xenografts. To be noted: literature; cited from earlier work.
Data set [9] relates to MIA PaCa-2. To be noted: literature; read-out: cell viability IC50 in MIA PaCa-2; cited from earlier work.
Data set [10] concerns cancer cell growth. To be noted: literature, hypoxic conditions; read-out: IC50, inhibition of cancer cell growth; cited from earlier work.
For data set [11] the following is noted: literature; cited from earlier work.
For data set [12], the target named is LDHA (Homo sapiens, UniProt P00338). To be noted: literature; cited from earlier work.
Data set [13] relates to cells. To be noted: literature; cited from earlier work.
Data set [14] has as its system Snu398 cells. To be noted: literature; read-out: cell viability EC50 in Snu398 cells; cited from earlier work.

For orientation: IC50 means the concentration needed to halve the response being measured. With `COC(=O)c1cc2c(C(F)(F)F)cc(-c3ccccc3)cc2n1O` [NHI-2], the 50% inhibitory concentration (IC50) is 33.4 µM in [1] and 22.2 µM in [2]. Also, in data set [3], the “apoptosis and gemcitabine synergy” value is “induced apoptosis, and synergistically enhanced gemcitabine activity in PDAC cells”.
For `O=C(CC(C(=O)O)c1ccc(C(F)(F)F)cc1)Nc1ccc(C(=O)N2CCc3ccccc32)cc1` (centres unmarked) [Compound 19], the IC50 in [4] was determined as 43.1 ± 4.87 µM; in data set [5], 56.5 µM. The IC50 at 48 hr in [6] was more than 50 µM.
With `COC(=O)C(CC(=O)Nc1ccc(C(=O)N2CCc3ccccc32)cc1)c1ccc(C(F)(F)F)cc1` (centres unmarked) [Compound 17], the IC50 in data set [4] was found to be 24.2 ± 1.08 µM; in [5] it was 73.4 ± 6.8 µM. Besides, the IC50 at 48 hr in data set [6] came out at 50.7 ± 3.6 µM.
For `COC(=O)C(CC(=O)Nc1ccc(F)cn1)c1ccc(C(F)(F)F)cc1` (centres unmarked) [Compound 23], the IC50 stood at 5.58 ± 1.05 µM in [7], 22.3 ± 2 µM in [4] and 13.3 ± 0.9 µM in data set [5]. In addition, in [6], the IC50 at 48 hr is more than 50 µM.
`CCCc1c(O)c(O)c(C(=O)O)c2cc(Cc3ccccc3)c(C)cc12` [FX-11]: the IC50 in data set [1] was 23.3 µM. Further, the “progression of cancer xenografts” value in [8] is “inhibit the progression of human pancreatic and lymphoma cancer xenografts”.
In the case of GNE-140, the IC50 in [9] was 2.05 µM; in data set [10], 2 µM. Further, in [11], the “pharmacokinetics / clearance in vivo” value is reported as “high clearance”.
`Cc1nc2ccc(NC(=O)CCNC(=O)CCCc3ccc(CC(C(=O)O)C(=O)O)cc3)cc2s1` [AZ33]: the 50% inhibitory concentration (IC50) in data set [12] is 0.5 µM. Further, in [13], the “cellular activity” value is “inactive in cells”.
In the case of `COC(=O)C(CC(=O)Nc1ccc(C(=O)c2nccn2C)cc1)c1ccc(C(F)(F)F)cc1` (centres unmarked) [Compound 4], the IC50 worked out at 23.9 ± 1.8 µM in data set [4] and 12.1 ± 1.2 µM in [5]. Besides, the IC50 at 48 hr in data set [6] came out at 49.5 ± 7.3 µM.
Usually EC50 stands for the concentration needed to bring the measured effect to its halfway point. Turning to `COc1ncc(-c2ccc3c(Nc4cc(Oc5cc(F)cc(F)c5)cc(C(=O)O)c4)c(S(=O)(=O)NC4CC4)cnc3c2)c(OC)n1` [GSK2837808A], in [14], the EC50 was 2.9 µM. Moreover, in data set [10], the IC50 was 2.97 µM. For the same compound, in data set [11], the “pharmacokinetics / clearance in vivo” value is “poor pharmacokinetics in vivo”.
Consider `Cn1ccnc1C(=O)c1ccc(NC(=O)CC(C(=O)O)c2ccc(C(F)(F)F)cc2)cc1` (centres unmarked) [Compound 5], for which the IC50 was 43.3 ± 3.98 µM in data set [4] and 20.8 ± 2.97 µM in data set [5]. In addition, in data set [6], the IC50 at 48 hr was more than 50 µM.
